In test [1] the test system is Staphylococcus aureus MW2 (mecA+). In words: IC50 (growth, competition assay). To be noted: cefoxitin: subinhibitory. In short, it runs like this:
(§1)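 Pre-induced, 1:1-mixed fluorescent S. aureus MW2 mecA+ and ΔmecA strains were grown 20 h at 37 °C, 90% humidity, unshaken, in LB with a daily-set subinhibitory cefoxitin dose, in 1536-well plates. Compounds were given on five- or nine-point 2-fold gradients, in two dye-swapped replicates. DsRed (540/590) and GFP (485/520) were scaled per plate between single-strain control medians, with No Treatment then set to 0.5. Per-strain IC50 was the dose halving the No Treatment signal, or the maximal signal.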

Test [2] has as its system Staphylococcus aureus MW2 delta-mecA (mecA-). In words: IC50 (growth, competition assay). The following applies: cefoxitin: subinhibitory. The procedure, abridged: as §1

IC50 data for 29 molecules are collected here from the supplement of paper PMC7695840.

“And” between values parts separate entries of the source, which are not always exact repeats. Equal values may be shown once. Where a name gives a salt, the structure may show the parent alone.

As usually defined, the IC50 is the concentration that inhibits the measured activity by half. High values mean lower potency, low ones higher potency. For `CC[C@H]1OC(=O)[C@H](C)[C@@H](O[C@H]2C[C@@](C)(OC)[C@@H](O)[C@H](C)O2)[C@H](C)[C@@H](O[C@@H]2O[C@H](C)C[C@H](N(C)C)[C@H]2O)[C@](C)(O)C[C@@H](C)/C(=N\OCOCCOC)[C@H](C)[C@@H](O)[C@]1(C)O` [RULIDE], the IC50 in test [1] (fluorescent label: DsRed), in test [1] (fluorescent label: GFP), in test [2] (fluorescent label: DsRed) and in test [2] (fluorescent label: GFP) was below 9.85 µM in each case.
With `COc1ccnc2[nH]cc(C(=O)C(=O)N3CCN(C(=O)c4ccccc4)C[C@H]3C)c12`, the half-inhibitory concentration (IC50) in test [1] (fluorescent label: DsRed), in test [1] (fluorescent label: GFP), in test [2] (fluorescent label: DsRed) and in test [2] (fluorescent label: GFP) was above 150 µM each time.
Regarding `CN(C)[C@@H]1C(O)=C(C(N)=O)C(=O)[C@@]2(O)C(O)=C3C(=O)c4c(O)ccc(Cl)c4[C@@H](O)[C@H]3C[C@@H]12` [DECLOMYCIN], the IC50 in test [1] (fluorescent label: DsRed), in test [1] (fluorescent label: GFP), in test [2] (fluorescent label: DsRed) and in test [2] (fluorescent label: GFP) was below 9.85 µM each time.
Turning to `O=[N+]([O-])C=Cc1ccc2c(c1)OCO2` [MNS], the IC50 in test [1] (fluorescent label: DsRed) was 20.5 µM; in test [1] (fluorescent label: GFP) it was 27.1 µM; in test [2] (fluorescent label: DsRed), below 9.85 µM; in test [2] (fluorescent label: GFP), below 9.85 µM.
As for `CCN(CC)C(=S)SSC(=S)N(CC)CC` [ANTABUSE], the IC50 turned out to be 31.7 µM in test [1] (fluorescent label: DsRed), 33.4 µM in test [1] (fluorescent label: GFP), 12.3 µM in test [2] (fluorescent label: DsRed) and 11.1 µM in test [2] (fluorescent label: GFP).
The like results for `O=C(/C=C/c1ccc(O)cc1)c1ccc(O)cc1O` [Isoliquiritigenin] were, in that order, 130 µM, above 150 µM, 27.5 µM and 17 µM.
For `C[C@@H](O)[C@H]1C(=O)N2C(C(=O)OCOC(=O)C(C)(C)C)=C(SC3CN(C4=NCCS4)C3)[C@H](C)[C@H]12` [Tebipenem pivoxil (L-084)], in that order: 1.76 µM, 1.77 µM, below 0.498 µM and below 0.498 µM.
The like results for `COCC(=O)O[C@]1(CCN(C)CCCc2nc3ccccc3[nH]2)CCc2cc(F)ccc2[C@@H]1C(C)C` [Mibefradil dihydrochloride] were, in that order, 41.1 µM, 51.9 µM, 16.4 µM and 11.2 µM.
Consider `CN[C@@H]1C[C@@H](c2ccc(Cl)c(Cl)c2)c2ccccc21` [Indatraline hydrochloride], for which the IC50 in test [1] (fluorescent label: DsRed) was determined as 70.1 µM; in test [1] (fluorescent label: GFP), 98.4 µM; in test [2] (fluorescent label: DsRed), 36.2 µM; in test [2] (fluorescent label: GFP), 52.3 µM.
For `O=C(O)CCCCC(CCSCc1ccccc1)SCc1ccccc1` (stereo unspecified) [CPI-613], in that order: 15.5 µM, 15 µM, below 9.85 µM and below 9.85 µM.
Consider `NCC(=O)Nc1ccc(-n2nc(C(F)(F)F)cc2-c2ccc3c(ccc4ccccc43)c2)cc1`, for which the IC50 in test [1] (fluorescent label: DsRed) was 21.6 µM and 20.8 µM; in test [1] (fluorescent label: GFP), 29.3 µM and 14.7 µM; in test [2] (fluorescent label: DsRed), 8.83 µM and 14.5 µM; in test [2] (fluorescent label: GFP) it was 3.48 µM and 14.7 µM.
As for `CC(C)(C)c1ccc(C(=O)CCCN2CCC(OC(c3ccccc3)c3ccccc3)CC2)cc1` [Ebastine], the IC50 in test [1] (fluorescent label: DsRed) is 16.4 µM; in test [1] (fluorescent label: GFP), 15.3 µM; in test [2] (fluorescent label: DsRed), below 9.85 µM; in test [2] (fluorescent label: GFP) it was below 9.85 µM.
As to `Cc1cc(C2CCCCC2)n(O)c(=O)c1` [Ciclopirox (Penlac)], the IC50 in test [1] (fluorescent label: DsRed) was found to be 19 µM; in test [1] (fluorescent label: GFP), 30.1 µM; in test [2] (fluorescent label: DsRed) it was 29.7 µM; in test [2] (fluorescent label: GFP), 29.5 µM.
For `CC(C)=CCCC1(C)C=Cc2c(O)c3c(c(CC=C(C)C)c2O1)OC12C(=CCCC1C(C)(C)O[C@@]2(C/C=C(\C)C(=O)O)C(=O)O)C3=O` (stereo partly specified) [GARCINOLIC ACID], in that order: below 9.85 µM, 14.8 µM, below 9.85 µM and below 9.85 µM.
Regarding `CC[C@H](C)[C@H](N)C1=N[C@H](C(=O)N[C@@H](CC(C)C)C(=O)N[C@H](CCC(=O)O)C(=O)N[C@H](C(=O)N[C@H]2CCCCNC(=O)[C@H](CC(N)=O)NC(=O)[C@@H](CC(=O)O)NC(=O)[C@H](Cc3cnc[nH]3)NC(=O)[C@@H](Cc3ccccc3)NC(=O)[C@H]([C@@H](C)CC)NC(=O)[C@@H](CCCN)NC2=O)[C@@H](C)CC)CS1` [BACITRACIN], the IC50 in test [1] (fluorescent label: DsRed) was above 150 µM; in test [1] (fluorescent label: GFP) it was above 150 µM; in test [2] (fluorescent label: DsRed), 37.8 µM; in test [2] (fluorescent label: GFP), 59.4 µM.
For `O=c1oc2ccccc2c(O)c1Cc1c(O)c2ccccc2oc1=O` [DICUMOL], the IC50 in test [1] (fluorescent label: DsRed) was found to be 11.6 µM; in test [1] (fluorescent label: GFP), 18.2 µM; in test [2] (fluorescent label: DsRed), 14 µM; in test [2] (fluorescent label: GFP), 27 µM.
In the case of `CCOC(=O)[C@@H](N)Cc1ccc(-c2cc(O[C@H](c3ccc(Cl)cc3-n3ccc(C)n3)C(F)(F)F)nc(N)n2)cc1` [LX1606 hippurate], the half-inhibitory concentration (IC50) in test [1] (fluorescent label: DsRed) is 21.7 µM; in test [1] (fluorescent label: GFP) it was 19.2 µM; in test [2] (fluorescent label: DsRed), below 9.85 µM; in test [2] (fluorescent label: GFP), below 9.85 µM.
For the molecule `COc1cc2ncnc(Nc3ccc(Oc4ccccc4)cc3)c2cc1OC` [Src I1], the IC50 worked out at 29 µM in test [1] (fluorescent label: DsRed), 30.7 µM in test [1] (fluorescent label: GFP), 30.6 µM in test [2] (fluorescent label: DsRed) and 25.3 µM in test [2] (fluorescent label: GFP).
For `C/C(=C\C(=O)Nc1ccccc1C(=O)O)c1ccc2ccccc2c1` [BIBR1532], the IC50 in test [1] (fluorescent label: DsRed) is below 9.85 µM; in test [1] (fluorescent label: GFP), 12.3 µM; in test [2] (fluorescent label: DsRed) it was below 9.85 µM; in test [2] (fluorescent label: GFP) it was below 9.85 µM.
In the case of `O=C(O)c1cn(-c2ccc(F)cc2)c2cc(N3CCNCC3)c(F)cc2c1=O` [SARAFLOX], the IC50 in test [1] (fluorescent label: DsRed), in test [1] (fluorescent label: GFP), in test [2] (fluorescent label: DsRed) and in test [2] (fluorescent label: GFP) was below 9.85 µM throughout.
As for `O=c1[nH]cc(F)c(=O)[nH]1` [CARAC], the IC50 in test [1] (fluorescent label: DsRed), in test [1] (fluorescent label: GFP), in test [2] (fluorescent label: DsRed) and in test [2] (fluorescent label: GFP) was below 9.85 µM in each case.
For `CCC(=O)Nc1cccc(Oc2nc(Nc3ccc(N4CCN(C)CC4)cc3OC)ncc2Cl)c1` [WZ4003], the IC50 in test [1] (fluorescent label: DsRed), in test [1] (fluorescent label: GFP), in test [2] (fluorescent label: DsRed) and in test [2] (fluorescent label: GFP) was above 150 µM in each case.
`COc1cccc2c1[C@@H]1CN(CCCCn3c(=O)[nH]c4c(sc5ncc(-c6ccccc6)nc54)c3=O)C[C@@H]1CO2` [Fiduxosin hydrochloride]: the IC50 stood at 28.5 µM in test [1] (fluorescent label: DsRed), 29.8 µM in test [1] (fluorescent label: GFP), 10.5 µM in test [2] (fluorescent label: DsRed) and 12.6 µM in test [2] (fluorescent label: GFP).
The like results for `N=C(N)c1ccc(OCCCCCOc2ccc(C(=N)N)cc2)cc1` [Pentamidine HCl] were, in that order, 37.3 µM, 46.4 µM, 23.5 µM and 16.8 µM.
The like results for `CC[C@H]1OC(=O)C[C@@H](O)[C@H](C)[C@@H](O[C@@H]2O[C@H](C)[C@@H](O[C@H]3C[C@@](C)(O)[C@@H](O)[C@H](C)O3)[C@H](N(C)C)[C@H]2O)[C@@H](CC=O)C[C@@H](C)C(=O)/C=C/C(C)=C/[C@@H]1CO[C@@H]1O[C@H](C)[C@@H](O)[C@@H](OC)[C@H]1OC` [TYLAN] were, in that order, below 9.85 µM, below 9.85 µM, below 9.85 µM and below 9.85 µM.
For `CO/N=C(\C(=O)N[C@@H]1C(=O)N2C(C(=O)O)=C(COC(C)=O)CS[C@H]12)c1csc(N)n1` [CLAFORAN], in that order: 15.6 µM, 15 µM, below 9.85 µM and below 9.85 µM.
As for `CC1CC(OC(=O)C(O)c2ccccc2)CC(C)(C)C1` (stereo unspecified) [CYCLOSPASMOL], the IC50 was 45.1 µM in test [1] (fluorescent label: DsRed), 83.4 µM in test [1] (fluorescent label: GFP), 15.1 µM in test [2] (fluorescent label: DsRed) and 13.8 µM in test [2] (fluorescent label: GFP).
The like results for `CC(=O)[C@H]1CC[C@H]2[C@@H]3CC=C4C[C@@H](OC(=O)CCC(=O)O)CC[C@]4(C)[C@H]3CC[C@]12C` [FORMULA-405] were, in that order, 18.1 µM, 35 µM, 18.1 µM and 17.7 µM.
The like results for `Oc1ccc(/C=C/c2ccc(/C=C/c3ccc(O)cc3)c(Br)c2)cc1` [K114] were, in that order, below 9.85 µM, below 9.85 µM, below 9.85 µM and below 9.85 µM.
